Our source for the IC50 values is patent US11479551B2, “MTA-cooperative PRMT5 inhibitors” (Mirati Therapeutics, Inc., priority 2019, dated 2022).

Structures are written as SMILES. pIC50: −log10 of the molar value. Read-outs that look alike come from different tables or passages of the source.

This test has as its target PRMT5/MEP50 complex (Homo sapiens (Human), UniProt O14744). As to the kind of experiment: PRMT5:MEP50 FlashPlate Assay (histone H4 peptide substrate, plus and minus MTA). As to conditions: for IC50: IC50 + 2 μM MTA (nM), in the presence of 2 μM MTA. In kind it is biochemical. As for the experimental part: The PRMT5 inhibitory activity of compounds of the present invention was determined using either a PRMT5:MEP50 FlashPlate Assay (Reaction Biology Corporation) or a PRMT5:MEP50 HotSpot Assay (Reaction Biology Corporation).
1. PRMT5:MEP50 FlashPlate Assay

[1] abbreviates: in the absence of MTA, read-out: IC50.

PRMT5/MEP50 complex, sequence (O14744 2-637): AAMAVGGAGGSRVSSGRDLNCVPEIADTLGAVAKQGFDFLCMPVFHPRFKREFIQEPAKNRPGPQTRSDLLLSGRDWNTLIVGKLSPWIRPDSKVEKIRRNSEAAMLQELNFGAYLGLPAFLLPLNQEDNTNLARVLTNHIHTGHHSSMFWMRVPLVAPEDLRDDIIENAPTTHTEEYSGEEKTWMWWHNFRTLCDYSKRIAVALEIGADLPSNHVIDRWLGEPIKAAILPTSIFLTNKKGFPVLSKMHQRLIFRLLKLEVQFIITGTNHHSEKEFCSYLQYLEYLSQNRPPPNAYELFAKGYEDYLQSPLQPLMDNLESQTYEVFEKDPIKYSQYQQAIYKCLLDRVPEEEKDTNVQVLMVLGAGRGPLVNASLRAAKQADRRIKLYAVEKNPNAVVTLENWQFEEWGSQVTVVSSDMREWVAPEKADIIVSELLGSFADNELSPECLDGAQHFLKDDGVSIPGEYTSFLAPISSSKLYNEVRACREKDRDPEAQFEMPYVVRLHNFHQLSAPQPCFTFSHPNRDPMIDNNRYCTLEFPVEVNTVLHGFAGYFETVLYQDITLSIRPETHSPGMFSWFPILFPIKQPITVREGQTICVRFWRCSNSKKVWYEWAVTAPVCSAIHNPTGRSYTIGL
PRMT5/MEP50 complex, sequence (Q9BQA1 2-342 partner): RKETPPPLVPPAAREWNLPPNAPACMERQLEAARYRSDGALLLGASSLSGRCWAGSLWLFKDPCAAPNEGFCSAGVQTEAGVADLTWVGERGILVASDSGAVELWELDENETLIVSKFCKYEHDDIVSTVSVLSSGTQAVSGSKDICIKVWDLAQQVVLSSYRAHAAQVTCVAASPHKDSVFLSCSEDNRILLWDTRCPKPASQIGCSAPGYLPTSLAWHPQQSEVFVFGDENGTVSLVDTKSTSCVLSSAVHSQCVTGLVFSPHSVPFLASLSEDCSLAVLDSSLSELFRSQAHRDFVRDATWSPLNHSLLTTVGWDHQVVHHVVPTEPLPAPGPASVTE

On to `NCc1n[nH]c(=O)c2ccc(-c3cncc(Oc4ccccn4)c3)cc12` [Example 4-63, 4-(aminomethyl)-6-(5-(pyridin-2-yloxy)pyridin-3-yl)phthalazin-1(2H)-one], for which the half-inhibitory concentration (IC50) (commonly the concentration at which inhibition is half-maximal) turned out to be 58 nM. For the same compound, the pIC50 (usually the negative decadic logarithm of the IC50, by convention in mol/L) under setting [1] is 5.86.
With `NCc1n[nH]c(=O)c2ccc(-c3cnc4ccc(OC5CC5)cn34)cc12` [Example 4-37, 4-(aminomethyl)-6-(6-cyclopropoxyimidazo[1,2-a]pyridin-3-yl)phthalazin-1(2H)-one], the half-inhibitory concentration (IC50) is 1.1 nM. Further, under setting [1], the pIC50 was 6.67.
For the compound `CC(C)CCn1cc(-c2ccc3c(=O)[nH]nc(CN)c3c2)cn1` [Example 3-26, 4-(aminomethyl)-6-(1-isopentyl-1H-pyrazol-4-yl)phthalazin-1(2H)-one], the IC50 was 1600 nM. Further, under setting [1], the pIC50 is 4.69.
For `NCc1n[nH]c(=O)c2ccc(-c3cncc(Oc4ccc(F)cc4)c3)cc12` [Example 7-3, 4-(aminomethyl)-6-(5-(4-fluorophenoxy)pyridin-3-yl)phthalazin-1(2H)-one] the same measures were 15 nM and 6.41.
As to `NCc1n[nH]c(=O)c2ccc(-c3cncc(OC(F)(F)F)c3)cc12` [Example 4-9, 4-(aminomethyl)-6-(5-(trifluoromethoxy)pyridin-3-yl)phthalazin-1(2H)-one], the IC50 was 590 nM. Under setting [1], the negative logarithm of the IC50 (pIC50) was 4.80.
For `Cn1cc(-c2ccc3c(CN)n[nH]c(=O)c3c2)cn1` [Example 1-8, 4-(aminomethyl)-7-(1-methyl-1H-pyrazol-4-yl)phthalazin-1(2H)-one] the same measures were 10000 nM and less than 4.00.
Take `Cn1ncc(-c2cncc(-c3ccc4c(=O)[nH]nc(CN)c4c3)c2)c1C#N` [Example 4-8, 4-(5-(4-(aminomethyl)-1-oxo-1,2-dihydrophthalazin-6-yl)pyridin-3-yl)-1-methyl-1H-pyrazole-5-carbonitrile]: the IC50 is 440 nM. The pIC50 under setting [1] was less than 4.00.
Consider `N#Cc1ccccc1Oc1cncc(-c2ccc3c(=O)[nH]nc(CN)c3c2)c1` [Example 7-2, 2-((5-(4-(aminomethyl)-1-oxo-1,2-dihydrophthalazin-6-yl)pyridin-3-yl)oxy)benzonitrile], for which the IC50 is 16 nM. The negative-log IC50 (pIC50) under setting [1] was 6.61.
For `NCc1n[nH]c(=O)c2ccc(-c3cncc4ccccc34)cc12` [Example 3-54, 4-(aminomethyl)-6-(isoquinolin-4-yl)phthalazin-1(2H)-one] the same measures were 64 nM and 5.89.
For `CS(=O)(=O)c1cncc(-c2ccc3c(=O)[nH]nc(CN)c3c2)c1` [Example 3-48, 4-(aminomethyl)-6-(5-(methylsulfonyl)pyridin-3-yl)phthalazin-1(2H)-one], the 50% inhibitory concentration (IC50) worked out at 280 nM. The pIC50 under setting [1] is 5.10.
Taken in the same sequence, the figures for `CN1CCn2ncc(-c3ccc4c(=O)[nH]nc(CN)c4c3)c2C1` [Example 4-11, 4-(aminomethyl)-6-(5-methyl-4,5,6,7-tetrahydropyrazolo[1,5-a]pyrazin-3-yl)phthalazin-1(2H)-one] were 110 nM and 5.62.
Taken in the same sequence, the figures for `NCc1n[nH]c(=O)c2ccc(-c3cncn3Cc3ccccc3)cc12` [Example 4-108, 4-(aminomethyl)-6-(1-benzyl-1H-imidazol-5-yl)phthalazin-1(2H)-one] were 900 nM and 5.06.
On to `COc1cncc(-c2ccc3c(=O)[nH]nc(CN)c3c2)c1` [Example 3-45, 4-(aminomethyl)-6-(5-methoxypyridin-3-yl)phthalazin-1(2H)-one], for which the IC50 worked out at 370 nM. Moreover, the pIC50 under setting [1] is 5.17.
`NCc1n[nH]c(=O)c2ccc(-c3cnc4cccnn34)cc12` [Example 4-26, 4-(aminomethyl)-6-(imidazo[1,2-b]pyridazin-3-yl)phthalazin-1(2H)-one]: the IC50 amounted to 130 nM. Besides, under setting [1], the negative logarithm of the IC50 (pIC50) was 5.76.
Turning to `NCc1n[nH]c(=O)c2ccc(-c3cnn4ccccc34)cc12` [Example 3-16, 4-(aminomethyl)-6-(pyrazolo[1,5-a]pyridin-3-yl)phthalazin-1(2H)-one], the IC50 came out at 13 nM. For the same compound, the pIC50 under setting [1] was 6.73.
For `CC(C)c1cncc(-c2ccc3c(=O)[nH]nc(CN)c3c2)c1` [Example 3-14, 4-(aminomethyl)-6-(5-isopropylpyridin-3-yl)phthalazin-1(2H)-one], the IC50 amounted to 17 nM. Besides, the negative-log IC50 (pIC50) under setting [1] was 6.38.
Turning to `Cn1cc(-c2ccc3c(=O)[nH]nc(CN)c3c2)c(C(F)(F)F)n1` [Example 3-25, 4-(aminomethyl)-6-(1-methyl-3-(trifluoromethyl)-1H-pyrazol-4-yl)phthalazin-1(2H)-one], the concentration for half-maximal inhibition (IC50) stood at 71000 nM. The pIC50 under setting [1] is less than 4.00.
For the compound `Cc1cncc(-c2ccc3c(=O)[nH]nc(CN)c3c2)c1` [Example 3-10, 4-(aminomethyl)-6-(5-methylpyridin-3-yl)phthalazin-1(2H)-one], the half-inhibitory concentration (IC50) worked out at 100 nM. Besides, the negative logarithm of the IC50 (pIC50) under setting [1] is 5.41.
`CC(C)Cn1cc(-c2ccc3c(=O)[nH]nc(CN)c3c2)cn1` [Example 3-27, 4-(aminomethyl)-6-(1-isobutyl-1H-pyrazol-4-yl)phthalazin-1(2H)-one]: the IC50 worked out at 4200 nM. Further, the pIC50 under setting [1] is 4.23.
Taken in the same sequence, the figures for `NCc1n[nH]c(=O)c2ccc(-c3cnn4c3CN(C(=O)C3CCC3)CC4)cc12` [Example 4-86, 4-(aminomethyl)-6-(5-(cyclobutanecarbonyl)-4,5,6,7-tetrahydropyrazolo[1,5-a]pyrazin-3-yl)phthalazin-1(2H)-one] were 11 nM and 6.14.
For `Cc1ccc(-c2ccc3c(=O)[nH]nc(CN)c3c2)cn1` [Example 3-5, 4-(aminomethyl)-6-(6-methylpyridin-3-yl)phthalazin-1(2H)-one] the same measures were 7400 nM and 4.06.
`N#Cc1cncc(-c2ccc3c(=O)[nH]nc(CN)c3c2)c1` [Example 3-37, 5-(4-(aminomethyl)-1-oxo-1,2-dihydrophthalazin-6-yl)nicotinonitrile]: the IC50 amounted to 3200 nM. Besides, under setting [1], the pIC50 is 4.14.
Taken in the same sequence, the figures for `NCc1n[nH]c(=O)c2ccc(-c3cncc([S+]([O-])c4ccccc4)c3)cc12` (stereo not drawn) [Example 4-111, 4-(aminomethyl)-6-(5-(phenylsulfinyl)pyridin-3-yl)phthalazin-1(2H)-one] were 12 nM and 6.33.
As for `NCc1n[nH]c(=O)c2ccc(-c3cncc(Oc4cccnc4)c3)cc12` [Example 4-62, 4-(aminomethyl)-6-(5-(pyridin-3-yloxy)pyridin-3-yl)phthalazin-1(2H)-one], the IC50 was determined as 120 nM. Also, the negative logarithm of the IC50 (pIC50) under setting [1] is 5.65.
For `Cc1ccc(C#N)c(-c2cncc(-c3ccc4c(=O)[nH]nc(CN)c4c3)c2)c1` [Example 8-7, 2-(5-(4-(aminomethyl)-1-oxo-1,2-dihydrophthalazin-6-yl)pyridin-3-yl)-4-methylbenzonitrile] the same measures were 33 nM and 6.03.
For `N#Cc1ccc(F)cc1-c1cncc(-c2ccc3c(=O)[nH]nc(CN)c3c2)c1` [Example 8-1, 2-(5-(4-(aminomethyl)-1-oxo-1,2-dihydrophthalazin-6-yl)pyridin-3-yl)-4-fluorobenzonitrile] the same measures were 47 nM and 5.78.
For `NCc1n[nH]c(=O)c2ccc(-c3cnc4cc(F)ccn34)cc12` [Example 4-29, 4-(aminomethyl)-6-(7-fluoroimidazo[1,2-a]pyridin-3-yl)phthalazin-1(2H)-one] the same measures were 190 nM and 5.39.
Regarding `Cc1ccccc1Oc1cncc(-c2ccc3c(=O)[nH]nc(CN)c3c2)c1` [Example 4-72, 4-(aminomethyl)-6-(5-(o-tolyloxy)pyridin-3-yl)phthalazin-1(2H)-one], the IC50 amounted to 3 nM. For the same compound, under setting [1], the pIC50 is 7.14.
Taken in the same sequence, the figures for `NCc1n[nH]c(=O)c2cc(-c3ccccn3)ccc12` [Example 1-4, 4-(aminomethyl)-7-(pyridin-2-yl)phthalazin-1(2H)-one] were 39000 nM and less than 4.00.
Taken in the same sequence, the figures for `NCc1n[nH]c(=O)c2ccc(-c3cnsc3)cc12` [Example 4-2, 4-(aminomethyl)-6-(isothiazol-4-yl)phthalazin-1(2H)-one] were 490 nM and 4.86.
Consider `NCc1n[nH]c(=O)c2ccc(-c3cnc4cc(Cl)ccn34)cc12` [Example 4-28, 4-(aminomethyl)-6-(7-chloroimidazo[1,2-a]pyridin-3-yl)phthalazin-1(2H)-one], for which the IC50 stood at 140 nM. Also, under setting [1], the negative logarithm of the IC50 (pIC50) is 5.17.
As for `N#Cc1cncc(-c2ccc3c(=O)[nH]nc(CN)c3c2)c1F` [Example 3-38], the negative logarithm of the IC50 (pIC50) by setting is: under setting [1], 5.31; (read-out: IC50 + 2 μM MTA, in the presence of 2 μM MTA) 6.43.
For the compound `NCc1n[nH]c(=O)c2ccc(-c3cncc(Oc4ccccc4F)c3)cc12` [Example 4-70, 4-(aminomethyl)-6-(5-(2-fluorophenoxy)pyridin-3-yl)phthalazin-1(2H)-one], the IC50 was found to be 10 nM. The negative-log IC50 (pIC50) under setting [1] is 6.66.
On to `CCc1cncc(-c2ccc3c(=O)[nH]nc(CN)c3c2)c1` [Example 3-13, 4-(aminomethyl)-6-(5-ethylpyridin-3-yl)phthalazin-1(2H)-one], for which the 50% inhibitory concentration (IC50) is 110 nM. The pIC50 under setting [1] is 5.85.
Taken in the same sequence, the figures for `N#Cc1ncccc1-c1ccc2c(=O)[nH]nc(CN)c2c1` [Example 4-7, 3-(4-(aminomethyl)-1-oxo-1,2-dihydrophthalazin-6-yl)picolinonitrile] were 8400 nM and less than 4.00.
Taken in the same sequence, the figures for `NCc1n[nH]c(=O)c2ccc(-c3cncc(Sc4cccc(Cl)c4)c3)cc12` [Example 4-56, 4-(aminomethyl)-6-(5-((3-chlorophenyl)thio)pyridin-3-yl)phthalazin-1(2H)-one] were 3.8 nM and 6.97.
